From article PMC9917099, “The Mycotoxin Patulin Inhibits the Mitochondrial Carnitine/Acylcarnitine Carrier (SLC25A20) by Interaction with Cys136 Implications for Human Health” (International Journal of Molecular Sciences, 2023)
Changes are numbered by the printed parent chain. “And” between values parts separate entries of the source, which are not always exact repeats. Equal values may be shown once.

Tests used:
Assay type in all cases: biochemical
recombinant rat WT CAC = target: T1, recombinant rat WT CAC (Rattus norvegicus, UniProt P97521); test: [3H]-carnitine/carnitine antiport in proteoliposomes with recombinant rat WT CAC
T1 construct: made in house; host or cells: E. coli C0214 (pMW7, inclusion bodies)
T1 sequence (P97521 1-301): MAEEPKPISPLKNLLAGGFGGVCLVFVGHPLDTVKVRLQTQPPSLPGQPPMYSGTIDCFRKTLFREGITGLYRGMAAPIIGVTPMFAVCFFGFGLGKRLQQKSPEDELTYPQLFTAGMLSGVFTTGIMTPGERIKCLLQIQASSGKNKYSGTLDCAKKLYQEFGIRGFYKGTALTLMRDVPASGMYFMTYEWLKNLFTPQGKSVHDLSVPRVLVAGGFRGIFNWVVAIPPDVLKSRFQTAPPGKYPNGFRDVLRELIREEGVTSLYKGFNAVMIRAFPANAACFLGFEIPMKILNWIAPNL
Method: To shed light on the interaction between PAT and CAC and verify if specific Cys residues were involved, transport experiments on the recombinant rat and human WT CAC and CAC’s rat Cys mutants were performed. As in the case of the native protein, transport activities were measured as [^3H]-carnitine/carnitine antiport in proteoliposomes. […] The PAT inhibition of the WT recombinant protein was only slightly greater compared to the native protein, although compounds and other molecular systems that affect the mycotoxin binding to the native CAC were absent (see above). For identifying the residues involved in the PAT interaction, site-directed Cys mutants were tested for inhibition (Figure 2). […] The choice of this last mutant was due to the proximity of C155 to C136 during some steps of the substrate translocation mechanism. […] To confirm the main role played by C136 in the carrier PAT-induced impairment, the single mutant C155S and the mutant containing only C136 residue (C23V/C58V/C89S/C155V/C283S) were examined (Figure 2). […] Finally, no effect of the mycotoxin was observed on the C-less mutant (C23V/C58V/C89S/C136V/C155V/C283S), definitively excluding the participation of other residues in the interaction with PAT.
Figure 2 Dose-response analysis of the PAT inhibition of the CAC recombinant proteins. […] The data are expressed as a percentage of the controls (no PAT addition) and are means ± SD of three independent experiments.
The pMW7-WT rat or human CAC recombinant plasmids were used for over-expressing the rat and human CAC, as previously described. To introduce the mutations on the rat CAC recombinant plasmid, the overlap extension method was used as described, introducing the NdeI and HindIII restriction sites. The PCR products were purified using the QIAEX II Gel Extraction Kit (QIAGEN, Hilden, Germany), digested with NdeI and HindIII, and then ligated into the pMW7. All mutations were verified by DNA sequencing. The resulting plasmid constructs were transformed into E. coli C0214. Overexpression, inclusion body fraction preparation, and purification of the CAC proteins were performed as previously described.
The recombinant CAC proteins were reconstituted in proteoliposomes as previously described. […]
(§1) For the transport assay, 550 μL of proteoliposomes were passed through a Sephadex G-75 column in order to remove the external substrate. […] After finishing the transport reaction, the external radiolabel substrate was removed by gel filtration chromatography (Sephadex G-75), and the intraliposomal radioactivity was measured by liquid scintillation. Transport was measured at 25 °C. […] Transport rates were measured in 10 min, i.e., within the initial linear range of the time course.

rat CAC mutant C136S = target: T2, rat CAC mutant C136S (Rattus norvegicus, UniProt P97521, C136S); test: Carnitine antiport in proteoliposomes, CAC mutant C136S
T2 construct: made in house; host or cells: E. coli C0214 (pMW7, inclusion bodies)
T2 sequence (P97521 1-301 C136S): T1 sequence (P97521 1-301) with C136S
Method: (§2) To shed light on the interaction between PAT and CAC and verify if specific Cys residues were involved, transport experiments on the recombinant rat and human WT CAC and CAC’s rat Cys mutants were performed. As in the case of the native protein, transport activities were measured as [^3H]-carnitine/carnitine antiport in proteoliposomes. […] The PAT inhibition of the WT recombinant protein was only slightly greater compared to the native protein, although compounds and other molecular systems that affect the mycotoxin binding to the native CAC were absent (see above). For identifying the residues involved in the PAT interaction, site-directed Cys mutants were tested for inhibition (Figure 2). […]
(§3) Figure 2 Dose-response analysis of the PAT inhibition of the CAC recombinant proteins. […] The data are expressed as a percentage of the controls (no PAT addition) and are means ± SD of three independent experiments. […]
as §1

[1] = target: T3, rat CAC mutant C23V/C58V/C89S/C155V/C283S (Rattus norvegicus, UniProt P97521, C155V/C23V/C283S/C58V/C89S); test: Carnitine antiport in proteoliposomes, CAC mutant containing only C136
T3 construct: made in house; host or cells: E. coli C0214 (pMW7, inclusion bodies)
T3 sequence (P97521 1-301 C23V/C58V/C89S/C155V/C283S): T1 sequence (P97521 1-301) with C23V, C58V, C89S, C155V, C283S
Method: as §2, §3, §1

O=C1C=C2C(=CCOC2O)O1 (stereo not drawn) [PAT, 4-hydroxy-4H-furo [3,2c] pyran-2 [6H] -one] was tested, and the “reversal of inhibition by DTE” value (recombinant rat WT CAC; 50 μM PAT 30 min, 5 mM DTE, recombinant WT) was “not reversed”, the “substrate protection: effect of carnitine on PAT inhibition” value (recombinant rat WT CAC; carnitine 0.5 and 10 mM added before 50 μM PAT) was “partially prevented” and the type of inhibition (recombinant rat WT CAC; protein form not specified) was “competitive”. For the same compound, the IC50 (recombinant rat WT CAC; rat recombinant WT, PAT 30 min, read-out: IC50 of CAC WT inhibition) was 47 µM and ~50 µM, the IC50 (rat CAC mutant C136S) was “not possible to detect” and the IC50 [1] was “comparable to the WT”.
